This note sets out measurements from patent US9969977B2, “Cell populations which co-express CD49c and CD90” (GARNET BIOTHERAPEUTICS, priority 2002, dated 2018).

This test deals with cells which co-expressed CD49c and CD90. Kind of test: qPCR of Sox-2 and Musashi transcripts with and without nifedipine treatment. Format: cell-based, human. The settings on record: 5 μM nifedipine. The procedure: The expression of transcripts for Sox-2 and Musashi were determined using quantitative polymerase chain reaction (qPCR). Briefly, Master Cell Bank of CFUs were derived from a bone marrow aspirate and stored as frozen aliquots using the method of Example 1. An aliquot was thawed and the cells were seeded in 96 well plates at 2000 cells/well in complete media and incubated at 37° C. in an atmosphere consisting of 5% carbon dioxide, 5% oxygen and 90% nitrogen for 3 days. On the third day of culture, cells were treated with 5 μM nifedipine (an L-type calcium channel blocker). After 24 hours of treatment, RNA was isolated using the QIAGEN®RNeasy reagents and the Qiagen Biorobot 3000. An aliquot of the eluted RNA was used to synthesize cDNA. Specifically, RNA was mixed with Promega MMLV, dNTPS, decamers and RNasin and incubated at 37° C. for 1 hour, followed by heat inactivation.
For quantitative PCR, cDNA samples were combined with Applied Biosystems SYBR Green PCR Core reagents and amplicon specific primers, as described below, in a 384 well format. The 384 well plate was then transferred to the Applied Biosystems ABI Prism 7900 for qPCR analysis. The qPCR program entailed a 2 minute cycle at 50 degrees, followed by a 10 minute cycle at 95 degrees to activate the polymerase. This was then followed by 40 amplification cycles consisting of 15 seconds of melting at 95 degrees and one minute of extension/annealing at 60 degrees. Cycle threshold values were converted into relative transcript number using a standard curve then normalized using the corresponding 18s. Data are expressed as a ratio of transcript per 10^6 18s transcripts.

Regarding `COC(=O)C1=C(C)NC(C)=C(C(=O)OC)C1c1ccccc1[N+](=O)[O-]` [nifedipine], the “Sox-2 expression in response to nifedipine” value (24 hours) is on record as 28 transcripts/10^6 transcripts of 18S RNA. In addition, the “Musashi expression in response to nifedipine” value (24 hours of stimulation) is on record as 0.093 transcripts/10^6 transcripts of 18S RNA. Where the note is “24 hours vs unstimulated”, the “increase in Musashi expression” value was approximately 17 fold and the “increase in Sox-2 expression” value is approximately 7 fold.
